Assays:
[1] = target: T1, PepT1 (Homo sapiens, UniProt P46059); test: PepT1 transporter-mediated cellular uptake (substrate test); format: cell-based; details: uptake 3 min, 37° C.
T1 construct: expressed in transfected cells
T1 sequence (P46059 1-708): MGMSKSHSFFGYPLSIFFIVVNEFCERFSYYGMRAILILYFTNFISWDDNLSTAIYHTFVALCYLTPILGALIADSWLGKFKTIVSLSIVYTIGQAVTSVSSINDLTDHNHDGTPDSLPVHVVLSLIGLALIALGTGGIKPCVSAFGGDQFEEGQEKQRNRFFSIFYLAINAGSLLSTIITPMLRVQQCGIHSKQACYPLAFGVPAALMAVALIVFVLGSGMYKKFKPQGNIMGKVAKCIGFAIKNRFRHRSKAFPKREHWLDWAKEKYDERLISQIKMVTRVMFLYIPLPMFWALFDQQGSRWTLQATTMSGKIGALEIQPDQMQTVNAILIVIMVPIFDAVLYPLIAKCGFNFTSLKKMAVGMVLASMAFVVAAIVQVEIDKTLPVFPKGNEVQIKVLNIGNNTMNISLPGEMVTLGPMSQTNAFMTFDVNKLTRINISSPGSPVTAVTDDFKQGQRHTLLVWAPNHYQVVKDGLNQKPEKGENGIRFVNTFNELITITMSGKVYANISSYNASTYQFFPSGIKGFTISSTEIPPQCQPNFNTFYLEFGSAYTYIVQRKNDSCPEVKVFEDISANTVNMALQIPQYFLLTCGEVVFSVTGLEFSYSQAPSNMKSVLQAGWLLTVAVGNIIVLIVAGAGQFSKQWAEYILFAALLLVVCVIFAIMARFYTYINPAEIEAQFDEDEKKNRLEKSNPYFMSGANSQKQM
Experimental: (§1) DMSO (0.5%) was the solvent control (SC) and the known inhibitor for the positive control (PC) was losartan (200 μM). Data were fit to either the Michaelis-Menten equation for uptake or the Hill equation for inhibition using the solvent control to define the top and the positive control inhibitor to define the bottom. Symbols represent the mean±SEM, n=3.
(§2) Human OAT1 (SLC22A6) and OAT3 (SLC22A8) overexpressing HEK-293 cells and control cells without transfected transporter (Corning® TransportoCells™) are plated to 24-well plates and cellular uptake of 10 to 100 μg/mL of a Compound of the Disclosure is measured in the absence and presence of transporter inhibitors. Uptake of a Compound of the Disclosure into control cells is measured only without chemical inhibitors. […] Cells are grown in DMEM (Gibco 4196, high glucose, without sodium pyruvate) supplemented with MEM non-essential amino acids and 10% fetal bovine serum. Cells are re-fed with fresh medium after attachment (4-6 hours post-seeding). Cell are plated at a density of 4×10^5/well in 24-well plates coated with poly-D-lysine. Transporter assays are conducted in 400 μL of HBSS supplemented with 10 mM Hepes, pH 7.4
The known probe substrates used as positive controls are 3 μM chlorothiazide for OAT1, 2 μM estrone-3-sulfate for OAT3, 10 μM gabapentin for LAT1, 50 μM Gly-Sar for PepT1, 500 μM thiophene-2-glyoxylic acid for MCT1. […]

[2] = target: T2, OAT3 (SLC22A8) (Homo sapiens, UniProt Q8TCC7); test: OAT3 transporter-mediated cellular uptake (substrate test); format: cell-based; details: uptake 5 min, 37° C.
T2 construct: host or cells: HEK-293
T2 sequence (Q8TCC7 1-542): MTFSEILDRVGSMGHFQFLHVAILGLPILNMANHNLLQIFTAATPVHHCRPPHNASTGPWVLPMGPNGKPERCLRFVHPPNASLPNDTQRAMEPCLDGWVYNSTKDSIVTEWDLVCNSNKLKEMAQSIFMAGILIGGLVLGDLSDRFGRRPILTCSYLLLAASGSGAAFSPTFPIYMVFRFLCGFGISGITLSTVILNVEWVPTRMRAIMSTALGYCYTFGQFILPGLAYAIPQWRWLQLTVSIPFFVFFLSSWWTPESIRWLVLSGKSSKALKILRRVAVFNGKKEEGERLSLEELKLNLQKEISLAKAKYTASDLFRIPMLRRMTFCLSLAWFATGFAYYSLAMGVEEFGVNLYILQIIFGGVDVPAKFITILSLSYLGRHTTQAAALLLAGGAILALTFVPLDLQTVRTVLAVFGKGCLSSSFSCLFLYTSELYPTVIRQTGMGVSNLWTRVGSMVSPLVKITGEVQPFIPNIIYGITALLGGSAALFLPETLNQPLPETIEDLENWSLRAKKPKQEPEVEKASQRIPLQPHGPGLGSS
Experimental: as §1, with “inhibitor diclofenac (100 μM) was” for “inhibitor for”, “control (PC).” for “control (PC) was losartan (200 μM).”, “the Michalis-Menten” for “the Michaelis-Menten”
as §2, with “7.4 […]” for “7.4”
Enzyme kinetic data for uptake and metabolism of a Compound of the Disclosure is analysed by fitting the Michaelis-Menten equation to the data. […]

CC(=O)N[C@@H](CC(C)C)C(=O)O [N-acetyl-L-leucine]
substrate of PepT1 (uptake) [1]: not a substrate | substrate of OAT3 (uptake) [2]: substrate

From patent US20240208895A1, “BRANCHED-CHAIN AMINO ACID DERIVATIVES TO TREAT DISEASE” (INTRABIO LTD., priority 2021, published 2024)
